Patent publication US20250129045A1, “SMALL MOLECULE PIM AND MTOR KINASE INHIBITOR AND METHODS OF USE THEREOF” (Arizona Board of Regents on Behalf of the University of …, priority 2022, published 2025)
Entries after “also recorded” stand apart in the source; their conditions may differ.

Key:
[1] = tested on: Prostate Cancer Growth; assay: SAR studies using inhibition of prostate cancer growth as a readout; type: cell-based; conditions: SAR by substituent position
[2] = molecular target: Pim1 and EDC3 binding (Homo sapiens, UniProt P11309); assay: In vitro co-precipitation / co-immunoprecipitation of EDC3 with Pim1; conditions: VBT-5445 at concentrations higher than 1 μM, listed as VBT 1-34
Procedure: (§1) FIGS. 7A-7I show inhibition of VBT5445 (VBT) on Pim1 and EDC3 binding and phosphorylation. FIG. 7A: In vitro co-precipitation (Co-PPT) assay was performed with recombinant EDC3 and biotinylated Pim1 using Streptavidin beads with increasing concentrations of the Pim inhibitor VBT5445 (VBT). FIG. 7B: Kinase assays were performed with recombinant EDC3 and Pim1 with increasing concentrations of VBT. FIG. 7C: Cell lysates from PC3-LN4 cells cultured with DMSO, 10 μM VBT, 3 μM AZD5363 (AKTi) and the combination for 6 hrs were subjected to western blotting (WB). […] WBs were performed using the indicated antibodies. FIG. 7E: PC3-LN4 cells were seeded into 48 well plate and incubated with either DMSO, VBT, AZD5363 or the combination, for 4.5 days. A real-time imaging system (IncuCyte™) was used to measure cell proliferation using a non-label cell monolayer confluence approach. FIG. 7F-7H: GFP image in PC3 LN4 GFP EDC3 expressing cells treated with PIMi: VBT (5 μM) and VBT (5 μM)+AZD5363 (3 μM) for 6 hrs.

[3] = tested on: PC3-LN4 cells; assay: Cell growth assay (IncuCyte) in PC3-LN4 prostate cancer cells; type: cell-based, human; conditions: combination with AZD5363 or BKM120
Procedure: as §1
Cell growth assay: Tumor cells were seeded into 48 well plates (1000 cells/well) and treated with varied agents. The Incucyte real-time imaging system (Incucyte) was used to measure cell proliferation using a non-label cell monolayer confluence approach. The images were captured every 12 h. Graphs were generated using an integrated confluence metric as an alternative for cell numbers. At the end of the study cell growth was visualized by crystal violet staining.

[4] = tested on: PC3-LN4 and PANC1 cells; assay: RPPA of PC3-LN4 and PANC1 cells (FIG. 24); type: cell-based; conditions: 5 μM, 24 h
Procedure: Tumor cells were treated with or without GRG-1-34 (5 μM) for 24 h and lysates were subjected to RPPA. The results were clustered in the form of heat map created using the Heatmapper web tool. The analysis was completed with the clustering method of Complete Linkage and the distance measurement method of Kendall's Tau.
(§2) To further examine how these compounds function to inhibit tumor growth, changes in both a wide variety of phosphoprotein and protein levels using reverse-phase protein arrays (RPPA) were evaluated. PANC1 and PC3-LN4 cells were treated with GRG1-34 at 5 μM for 24 h. […] The values in the RPPA obtained at these two time points were divided by the value at time zero to allow an evaluation of the changes caused by each drug treatment.

[5] = tested on: A549 lung cancer; assay: A549 lung cancer growth (crystal violet, 7 days); type: cell-based; conditions: 7 days of growth
Procedure: (§3) Cells were plated at 1000 cells per well and 24 h later treated with GRG compounds. After 7 days of growth, tumor cells were fixed with 4% paraformaldehyde, stained with 0.5% crystal violet in methanol and lysed in SDS. The absorbance of six samples treated with each compound or DMSO control was read at 570 nm. The error bars represent the Standard Deviation of these measurements

[6] = tested on: DU145 prostate cancer; assay: DU145 prostate cancer growth (crystal violet, 7 days); type: cell-based; conditions: 7 days of growth
Procedure: as §3
Cell growth was measured as in FIG. 17.

[7] = Plasma pharmacokinetics after oral dosing in mice; type: in vivo, mouse
Procedure: Plasma concentrations of GRG-1-34: These concentrations were determined by high performance liquid chromatography (HPLC) tandem mass spectrometry (MS). Quantification was achieved by GRG-1-34 calibration standards prepared in mouse plasma. GRG-1-34 in calibration standards or authentic samples was extracted by protein precipitation with methanol. After centrifugation, the supernatant was injected onto the HPLC-MS system. HPLC separation was achieved using a C-18 column and a gradient mobile phase of water and acetonitrile, both with 0.1% formic acid. The mass spectrometer was operated in the electrospray positive ion mode with selective reaction monitoring. The calibration curve was linear over the plasma concentration range of 2-1800 ng/ml. The pharmacokinetic analysis was performed using PKSolver 2.0 by a noncompartmental analysis. Murine gavage with GRG 1-34 was approved by the Animal Care Committee of the University of Arizona.
To examine the pharmacokinetics of this class of com-pounds GRG 1-34, one of the active isoforms, was given orally and blood was sampled from 3 mice at each time point (FIG. 21). The plasma concentration of GRG-1-34 peaked at 0.5 h after oral dosing and declined as a function of time. […] It has a large apparent volume of distribution (VZ/F) and apparent systemic clearance (CL/F), likely attributed to low systemic bioavailability (F) after oral dosing. At the maximum blood concentration of […], GRG-1-34 reached a concentration of 4 μM which in cell culture was sufficient to inhibit cell growth.

[8] = tested on: PANC1 cells; assay: Reverse-phase protein array (RPPA) of PANC1 cells, Table 3; type: cell-based; conditions: 6 h treatment, divided by zero-time value, average of triplicate
Procedure: as §2, with “evaluated.” for “evaluated. PANC1 and PC3-LN4 cells were treated with GRG1-34 at 5 μM for 24 h.”

Pim1 and EDC3 binding, sequence (P11309 whole entry): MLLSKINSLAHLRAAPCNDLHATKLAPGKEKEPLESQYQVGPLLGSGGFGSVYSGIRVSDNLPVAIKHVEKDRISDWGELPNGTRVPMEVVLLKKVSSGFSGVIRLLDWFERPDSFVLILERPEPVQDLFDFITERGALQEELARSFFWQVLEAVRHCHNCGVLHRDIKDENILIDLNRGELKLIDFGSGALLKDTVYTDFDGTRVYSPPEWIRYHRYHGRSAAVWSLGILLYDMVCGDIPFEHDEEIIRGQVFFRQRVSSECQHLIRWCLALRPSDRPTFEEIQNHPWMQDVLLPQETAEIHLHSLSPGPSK

Structure (SMILES): O=c1c(CNCc2cc(Br)ccn2)cc2ccc(Cl)cc2n1CCOc1ccccc1 [GRG-1-34, 3-((((4-bromopyridin-2-yl)methyl)amino)methyl)-7-chloro-1-(2-phenoxyethyl) quinolin-2 (1H)-one]
- Activity (inhibition of prostate cancer growth) [1]: 6 active compounds
- co-immunoprecipitation of EDC3 with Pim [2]: block the co-immunoprecipitation of EDC3 with Pim; also recorded: blocks co-immunoprecipitation of EDC3 with Pim
- prostate cancer (PC3-LN4) growth, in combination with AKT/PI3K inhibitor [3]: enhanced
- mTORC signaling pathway on RPPA (mTOR S2448, S6 S235/235, S6K T389, 4E-BP1 S65) [4]: inhibition
- phosphorylation of AMPK T172 on RPPA [4]: increased
- phosphorylation of acetyl COA carboxylase S79 on RPPA [4]: increased
- A549 lung cancer growth [5]: Inhibition
- A549 lung cancer growth ([5]; listed as VBT 1-34): shows activity
- DU145 prostate cancer growth [6]: Inhibition
- DU145 prostate cancer growth ([6]; listed as VBT 1-34): shows activity
- half-life ([7]; mouse, plasma, 62 mg/kg, oral, read-out: half-life (T1/2) (converted)): 2.08 h
- Cmax ([7]; mouse, plasma, oral, dose of 62 mg/kg, read-out: average maximum plasma concentration (Cmax)): 1990 ng/mL
- apparent systemic clearance (CL/F) ([7]; oral): large
- maximum blood concentration ([7]; oral): 2 ng/mL
- time at which the plasma concentration peaked after oral dosing ([7]; oral (gavage)): 0.5 h
- blood concentration reached at the maximum, molar ([7]; oral, level sufficient in cell culture to inhibit growth): 4 µM
- 4EBP1S65, RPPA value after treatment / zero-time value [8]: 0.52
- 4EBP1T70, RPPA value after treatment / zero-time value [8]: 0.75
- ATMS1981, RPPA value after treatment / zero-time value [8]: 0.46
- CICaspase3D175, RPPA value after treatment / zero-time value [8]: 1.09
- CofilinS3, RPPA value after treatment / zero-time value [8]: 0.46
- CrkIIY221, RPPA value after treatment / zero-time value [8]: 1.58
- ERKT202_Y204, RPPA value after treatment / zero-time value [8]: 2.39
- FAKY576_577, RPPA value after treatment / zero-time value [8]: 0.78
- FKHR-FOX01S256, RPPA value after treatment / zero-time value [8]: 0.71
- GSK3a_bS21_9, RPPA value after treatment / zero-time value [8]: 1.66
- HistoneH2AXS139, RPPA value after treatment / zero-time value [8]: 0.76
- HistoneH3S10, RPPA value after treatment / zero-time value [8]: 0.69
- IL-1bcleavedD116, RPPA value after treatment / zero-time value [8]: 0.41
- Jak1Y1022_1023, RPPA value after treatment / zero-time value [8]: 0.79
- MAPKpTEpY, RPPA value after treatment / zero-time value [8]: 1.35
- PDGFRbY751, RPPA value after treatment / zero-time value [8]: 7.02
- PP1aT320, RPPA value after treatment / zero-time value [8]: 0.47
- PaxillinY118, RPPA value after treatment / zero-time value [8]: 1.08
- RetY905, RPPA value after treatment / zero-time value [8]: 0.77
- S6RibosomalPS235_236, RPPA value after treatment / zero-time value [8]: 1.05
- S6RibosomalProtein S240_244, RPPA value after treatment / zero-time value [8]: 0.95
- SAPK_JNKT183_Y185, RPPA value after treatment / zero-time value [8]: 0.85
- Stat2Y690, RPPA value after treatment / zero-time value [8]: 2.89
- Stat3Y705, RPPA value after treatment / zero-time value [8]: 1.57
- Tyk2Y1054_1055, RPPA value after treatment / zero-time value [8]: 0.39
- VEGFR2Y1175, RPPA value after treatment / zero-time value [8]: 0.54
- YAPS127, RPPA value after treatment / zero-time value [8]: 0.68
- cAbIY245, RPPA value after treatment / zero-time value [8]: 0.87
- cKitY703, RPPA value after treatment / zero-time value [8]: 1.8
- p38MAPKT180_Y182, RPPA value after treatment / zero-time value [8]: 1.15
- p70S6KS371, RPPA value after treatment / zero-time value [8]: 0.62
- p70S6KT389, RPPA value after treatment / zero-time value [8]: 0.74
- p90RSKS380, RPPA value after treatment / zero-time value [8]: 1.51
